In patent US20260055150A1, “GRAIL-1 PEPTIDE PRODUCTS AND METHODS” (REGENTS OF THE UNIVERSITY OF MICHIGAN, priority 2022, published 2026):
“And” between values parts separate entries of the source, which are not always exact repeats. Identical values can stand only once. “Also recorded” adds a separate entry of the source. Where a SMILES comes first, the peptide text is derived from it. Where no end group is shown, it is not given here.

How the values were obtained:
[1] = system: CpD cells; test: Clonogenic survival of mutant p53 driven CpD cells; conditions: for cytotoxic effect on either cell type: CpA and CpD cells; for differential activity in reducing clonogenic survival of CpD cells: CpD versus CpA
Protocol: The effects of different siRNAs (e.g., GRAIL Iso1-1, GRAIL Iso1-2, TP53) on clonogenic survival of different BE (CpA, CpD) and EAC (Flo1, OE19, and OE33) cell lines were determined by normalizing the survival fraction of control siRNA-treated group as 1.
For this purpose, two BE cell lines were used, CpA (with wild type p53) and CpD (carrying mutant p53). […] In brief, 3000 cells in 100 μl of complete medium were plated per well in a 96-well plate 24 h prior to peptide treatments. Cells were then either treated with vehicle (dH2O) or serial dilutions of peptides. Two days following treatments MTT labelling reagent was added, and cells were allowed to form formazan crystals for 2 h. Following, 100 μl of solubilizing agent (10% SDS in 0.01M HCl) was added per well, and plates were incubated at 37° C. overnight. The optical density (OD) of the solubilized formazan was spectrophotometrically quantified using a plate reader at 570 nm with a reference at 650 nm. Data represent the mean (±standard error, SE) performed in quadruplicate, and percent cell viabilities are plotted in semi-logarithmic scale relative to water treated control.

[2] = system: chaperone activity (Fluc-DM); test: Fluc-DM luciferase reporter of cellular chaperone activity; format: cell-based; conditions: 20 μM peptide, overnight
Protocol: As Frag J/J^m overexpression locks DNAJA1-Hsp70 complex, whether such interactions inhibit chaperone activity was tested. […] To understand the in vivo effects of the Frag J or different peptides in multiple cell lines including BE/EAC and p53 isogenic lines, cells were first transfected/co-transfected with Fluc-DM±Frag J constructs. Twenty-four hours post-transfection, cells were either subjected to luciferase assay or for peptide treatment studies, cells were treated with 20 μM concentrations of different peptides. After overnight incubation, cell lysates were prepared using lysis buffer provided in the luciferase assay kit in Promega luciferase assay system (cat. E1910) followed by standardized protocol as provided by the manufacturer. […] Such observation was confirmed by an in vitro chaperone activity assay using recombinant purified Hsp40-Hsp70 complex (FIG. 6D). In Fluc-DM study, loss of Fluc-DM levels following Frag J/J^m overexpression (FIG. 6E) was noted as shown using immunoblotting. Such effects were independent of p53 mutation status.

[3] = system: mutant p53-R175H; test: Immunoblotting of mutant p53 steady state levels in CpD cells; format: cell-based; conditions: CpD cells transfected with DDK-tagged p53R175H; peptides 20 mM for 6 h
Protocol: CpD cells overexpressing mutant p53 were transfected with DDK-tagged p53R175H mutant. Cells were then treated with indicated peptides ([…] for 6 h).
Consequently, the effect of all thirteen peptides on mutant p53 steady state levels was tested.

[4] = system: OE19; conditions: OE19 cells
[5] = system: EAC cells (Flo1, OE19, and OE33); test: Cell viability (MTT) of EAC cell lines; format: cell-based
[6] = system: DNAJA1; test: Peptide pull down assay with recombinant DNAJA1; format: binding; conditions: NHS activated Sepharose beads, Western blot
Protocol: Briefly, 1 mg of peptide was dissolved in 1 ml of coupling buffer (0.2 M NaHCO3, 0.5 M NaCl, pH 8.3). Peptides were conjugated to NHS-activated resin by incubating 100 μL NHS bead slurry with 200 μL peptide solution for 2 hours at room temperature (RT). Unbound sites were blocked with quenching buffer (0.5 M ethanolamine, 500 mM NaCl). Resin peptide conjugates were washed once with low pH (0.1 M acetate, 0.5 M NaCl, pH 5) and high pH buffer (0.1 M Tris HCl, pH 8.0) and equilibrated with lysis buffer 50 mM HEPES, 150 mM NaCl, 0.2% NP-40, protease inhibitor cocktail, pH 7.5. Purified HSP40 protein was procured from […] (cat #). Purified protein was diluted in lysis buffer. Approximately 40 nM protein was incubated with peptide coupled to NHS beads and incubated for 2 hours at RT. Unbound proteins were removed by centrifugation and beads were washed with washing buffer (50 mM HEPES, 300 mM NaCl, 0.2% NP-40, pH 7.5). Bound proteins were obtained by boiling beads with 1× Laemmli buffer. […] To confirm, thermal stability assays (TSA) were performed. TSA was carried out using QuantStudio™ 7 Flex Real-Time PCR System. […] The plates were covered with optical foil during the reaction in the thermal cycler. […] The Instrument was programmed in the melt curve mode with ROX reagent detection and Fast speed run. The reporter was selected as Rox and none for quencher. Each melt curve was programmed as follows: 25° C. for 15 sec, followed by increase in temperature at the speed of 0.03° C./s up to 95° C. and finally 95° C. for 15 sec. The raw data was exported to Protein Thermal Shift™ Software (Applied Biosystems) for analysis. Melting temperature was calculated using the melt curve. […] To further test functionality, an in vitro ATPase activity assay was performed using purified Hsp40 and Hsp70 proteins. […] Pep 1 was redesignated “Pep J”.

[7] = target: Hsp40-Hsp70 (Homo sapiens, UniProt P31689); test: In vitro Hsp40-Hsp70 ATPase (chaperone) activity assay; format: biochemical; conditions: TAT-less peptides, dose-dependent
Protocol: (§1) Briefly, 1 mg of peptide was dissolved in 1 ml of coupling buffer (0.2 M NaHCO3, 0.5 M NaCl, pH 8.3). Peptides were conjugated to NHS-activated resin by incubating 100 μL NHS bead slurry with 200 μL peptide solution for 2 hours at room temperature (RT). Unbound sites were blocked with quenching buffer (0.5 M ethanolamine, 500 mM NaCl). Resin peptide conjugates were washed once with low pH (0.1 M acetate, 0.5 M NaCl, pH 5) and high pH buffer (0.1 M Tris HCl, pH 8.0) and equilibrated with lysis buffer 50 mM HEPES, 150 mM NaCl, 0.2% NP-40, protease inhibitor cocktail, pH 7.5. Purified HSP40 protein was procured from Boston Scientific (cat #). Purified protein was diluted in lysis buffer. Approximately 40 nM protein was incubated with peptide coupled to NHS beads and incubated for 2 hours at RT. Unbound proteins were removed by centrifugation and beads were washed with washing buffer (50 mM HEPES, 300 mM NaCl, 0.2% NP-40, pH 7.5). Bound proteins were obtained by boiling beads with 1× Laemmli buffer. […] To confirm, thermal stability assays (TSA) were performed. TSA was carried out using QuantStudio™ 7 Flex Real-Time PCR System. […] The plates were covered with optical foil during the reaction in the thermal cycler. […] The Instrument was programmed in the melt curve mode with ROX reagent detection and Fast speed run. […] Melting temperature was calculated using the melt curve. […]

[8] = system: DNAJA1; test: Thermal stability assay (TSA) with purified DNAJA1; format: binding; conditions: TAT-less peptides, 0-500 μM
Protocol: as §1

[9] = system: mutant p53
Protocol: The effect of Pep J and simvastatin treatment either alone or in combination on wild type and mutant p53 was tested in BE/EAC cells present in ten established PDOs grown in vitro. Scrambled Pep J was used as a negative control. […] Different concentrations of Pep J (10-200 μM) and simvastatin (50-1000 nM) were tested as well as different treatment time periods (24-96 hours).
Organoid lysates were prepared for immunoblotting similar to FIG. 13G.

[10] = system: patient-derived organoids (PDOs); test: Growth and survival of patient derived organoids in vitro; format: cell-based, human
[11] = system: OE33, OE 19 and Flo1 esophageal adenocarcinoma (EAC) cells; test: Radiosensitization clonogenic assay of EAC cells; format: cell-based; conditions: 20 μM for 24 hours, then 0-8 Gy
Protocol: OE33, OE 19 and Flo1 esophageal adenocarcinoma (EAC) cells were plated and after overnight incubation treated with 20 μM of Pep J for an additional 24 hours. Following, cells were irradiated with different doses (0, 2, 4, 6, 8 Gy) of radiation. Cells were then incubated for 24 hours prior to plating at a clonal density to perform clonogenic assays.

[12] = system: mutant p53 and EGFR; test: Immunoblotting of mutant p53 and EGFR levels in BE/EAC cells; format: cell-based

N=C(N)NCCC[C@H](NC(=O)CN)C(=O)N[C@@H](CCCCN)C(=O)N[C@@H](CCCCN)C(=O)N[C@@H](CCCNC(=N)N)C(=O)N[C@@H](CCCNC(=N)N)C(=O)N[C@@H](CCC(N)=O)C(=O)N[C@@H](CCCNC(=N)N)C(=O)N[C@@H](CCCNC(=N)N)C(=O)N[C@@H](CCCNC(=N)N)C(=O)N[C@@H](CCCNC(=N)N)C(=O)N1CCC[C@H]1C(=O)N[C@@H](CCC(N)=O)C(=O)O [Pep 13, GRKKRRQRRRRPQ]
cytotoxic effect on either cell type [1]: least cytotoxic effect

GRKKRRQRRRPQCKVPPWR [Pep 9]
inhibition of chaperone activity (Fluc-DM) [2]: inhibition of chaperone activity; also recorded: capable of inhibiting chaperone activity | mutant p53-R175H protein levels [3]: highly effective; also recorded: decrease in mutant p53 levels | differential activity in reducing clonogenic survival of CpD cells [1]: better differential activity

GRKKRRQRRRPQPMCKVPPWR [Pep 7]
mutant p53-R175H protein levels [3]: decrease in mutant p53 levels

GRKKRRQRRRPQPMCKVPPWRQ [Pep 5]
inhibition of chaperone activity (Fluc-DM) [2]: inhibition of chaperone activity; also recorded: capable of inhibiting chaperone activity | mutant p53-R175H protein levels [3]: highly effective; also recorded: decrease in mutant p53 levels | IC50 [4]: 19.4 µM | differential activity in reducing clonogenic survival of CpD cells [1]: better differential activity | IC50 ([1]; read-out: IC50, clonogenic survival, CpD cells (mutant p53)): 11.2 µM and ~11 µM | effect on EAC cell lines [5]: relatively more resistant

GRKKRRQRRRPQLGIEVDVEDG [Pep 12]
cytotoxic effect on either cell type [1]: least cytotoxic effect; also recorded: list effects

GRKKRRQRRRPQPMCKATPWRE [Pep 4]
mutant p53-R175H protein levels [3]: decrease in mutant p53 levels

LGIEVDVEDG [Pep 29, TAT-less Pep 12; Frag J amino acids 11-20]
interaction with purified DNAJA1 in peptide pull down [6]: no interaction

PMCKVPPWRQ [Pep 27, TAT-less Pep 5]
interaction with purified DNAJA1 in peptide pull down [6]: bound effectively

CKVPPWR [Pep 28, TAT-less Pep 9]
interaction with purified DNAJA1 in peptide pull down [6]: bound effectively

PMCKCDILKA [Pep 26, TAT-less Pep 1; Frag J amino acids 1-10]
inhibition of Hsp40-Hsp70 chaperoning (ATPase) activity [7]: best efficacy; also recorded: most effect agent | thermal stability assay result with DNAJA1 [8]: showed the best result; also recorded: better interactor | interaction with purified DNAJA1 in peptide pull down [6]: bound effectively

GRKKRRQRRRPQCKVPPWRQ [Pep 8]
mutant p53-R175H protein levels [3]: decrease in mutant p53 levels

CC[C@H](C)[C@H](NC(=O)[C@H](CC(=O)O)NC(=O)[C@H](CS)NC(=O)[C@H](CCCCN)NC(=O)[C@H](CS)NC(=O)[C@H](CCSC)NC(=O)[C@@H]1CCCN1C(=O)[C@H](CCC(N)=O)NC(=O)[C@@H]1CCCN1C(=O)[C@H](CCCNC(=N)N)NC(=O)[C@H](CCCNC(=N)N)NC(=O)[C@H](CCCNC(=N)N)NC(=O)[C@H](CCC(N)=O)NC(=O)[C@H](CCCNC(=N)N)NC(=O)[C@H](CCCNC(=N)N)NC(=O)[C@H](CCCCN)NC(=O)[C@H](CCCCN)NC(=O)[C@H](CCCNC(=N)N)NC(=O)CN)C(=O)N[C@@H](CC(C)C)C(=O)N[C@@H](CCCCN)C(=O)N[C@@H](C)C(=O)O [Pep 1] (H-GRKKRRQRRRPQPMCKCDILKA-OH; N-terminus and C-terminus assumed)
inhibition of chaperone activity (Fluc-DM) [2]: inhibition of chaperone activity; also recorded: capable of inhibiting chaperone activity | mutant p53-R175H protein levels [3]: highly effective; also recorded: decrease in mutant p53 levels | differential activity in reducing clonogenic survival of CpD cells [1]: better differential activity | mutant p53 (nuclear) levels by immunofluorescence ([9]; FFPE fixed and sectioned organoids, 72 h, listed as Pep J): significant reduction | reduction in mutant p53 levels ([9]; immunoblotting of whole PDO lysis, 72 hours of treatment): 50% | misfolded mutant p53 levels in PDOs ([9]; within 24 h post treatment): loss of misfolded mutant p53 | killing of PDOs ([10]; 7 days treatment in vitro): killed PDOs | size of organoid growth ([10]; after 72 h of treatment): No major effect | radiosensitization [11]: radiosensitized | impact on p53 and EGFR levels in wild type p53 cells ([12]; CpA cells): no major impact | EGFR levels ([12]; CpD and OE33 cells): reduces | mutant p53 levels ([12]; CpD and OE33 cells): reduces | interaction with purified DNAJA1 in peptide pull down [6]: showed interactions | effect on EAC cell lines [5]: relatively more resistant
